Holding throughout (type): cell-based
Assay [1] deals with GLB1 knockdown (shGLB1-1 and -2) senescent cells. Nature of the assay: Cell viability of GLB1 knockdown senescent cells. The following applies: SSK1 0.5 μM; shGLB1-1 and -2 vs shControl. The protocol: Plasmids used to interfere the expression of GLB1 with short hairpin RNAs (shRNAs) were obtained from Sigma MISSION shRNA. Genetic knockdown was performed according to the manufacturer's protocol.
Lentivirus production, collection, and infection were as described (Zhao et al., Cell Stem Cell 3, 475-479(2008)).
(§1) To test the viability of senescent and non-senescent cells treated with SSK1, cells were stained with a mixture of Hoechst 33342 and propidium iodide (PI) (CA1120, Solarbio) to distinguish living and dead cells. After treatment with the small molecules, the cell culture medium was removed, and the cells were washed once with PBS. Then, the cells were stained according to the manufacturer's protocol, where the final concentrations of Hoechst 33342 and PI were 5 μg/ml and 2 μg/ml in PBS buffer. The plate was incubated at 4° C. for 30 min and observed on a fluorescence microscope or automatic cell imaging system. Viable cells were quantified using a MD Image Xpress Micro XL (Molecular Devices).

The test system of assay [2] is senescent human umbilical vein endothelial cells (HUVECs). Nature of the assay: Cell viability, senescent and non-senescent HUVECs. To be noted: replication-induced senescent vs non-senescent HUVECs; increasing doses.
Excerpt: For replication-induced senescence, cells were passaged until they lost the ability to proliferate and became senescent. NBFs were used as senescent cells after approximately 8-9 passages or 12 population doublings. HEFs were used after approximately 35 passages or 50 population doublings. HUVECs were senescent after approximately 18 passages or 24 population doublings.
as §1

In assay [3] the test system is senescent lung cells from 23-month-old mice. As to the kind of experiment: Cell viability, mouse lung fibroblasts of old and young mice. To be noted: senescent lung cells from 23-month-old mice vs non-senescent lung cells from young mice; increasing doses. On the procedure:
Mouse embryonic fibroblasts (MEFs) were isolated from E13.5 embryos as described previously (Zhao et al., Cell Stem Cell 23, 31-45 e37([…])). Newborn mouse skin fibroblasts (NBFs) were isolated from the skin of day 1-3 newborn mice. Adult mouse lung fibroblasts were isolated from 2-month-old and 23-month-old mice. Briefly, mouse embryonic tissues, skin and lung were obtained from described donor mice. Then, these tissues were minced with forceps and incubated in 2 mg/ml collagenase IV (Gibco) for 2-4 hours at 37° C. After enzyme treatment, cells were collected by centrifugation and resuspended in high-glucose DMEM (Gibco) supplemented with 10% fetal bovine serum (FBS) and 1% penicillin-streptomycin (Gibco). The three types of mouse primary cells were all cultured in a humidified incubator at 37° C. and 5% CO2.
To test the viability of senescent and non-senescent cells treated with SSK1, cells were stained with a mixture of Hoechst 33342 and propidium iodide (PI) (CA1120, Solarbio) to distinguish living and dead cells. After treatment with the small molecules, the cell culture medium was removed, and the cells were washed once with PBS. […] The plate was incubated at 4° C. for 30 min and observed on a fluorescence microscope or automatic cell imaging system. Viable cells were quantified using a MD Image Xpress Micro XL (Molecular Devices).

In another assay the test system is senescent cells. Nature of the assay: Flow cytometry of apoptosis (annexin V / propidium iodide) in senescent cells. To be noted: SSK1-treated senescent cells; after 36 hours of treatment. The protocol: Fibroblasts were digested into single cell suspensions by incubation with 0.25% trypsin-EDTA (Invitrogen) at 37° C. for 3-5 min or with accutase at 37° C. for 10 min. Cells were then stained with FITC annexin V and propidium iodide (PI) according to the manufacturer's protocol (FITC Annexin V Apoptosis Detection Kit I, BD Pharmingen™). For chondrocytes Annexin V/7-AAD analysis, the trypsinized live chondrocytes and floating cells were collected, centrifuged and washed with PBS. Cells were stained with the Annexin V Apoptosis Detection Kit (Biolegend, 640934) according to the manufacturer's instruction. Before the flow cytometric analysis, the precision count beads (Biolegend, 424902) were added to count the absolute live cell numbers. Flow cytometry was performed within one hour on an Aria III (BD Biosciences) or FACSVerse (BD Biosciences). Data were analyzed using FlowJo software (FlowJo LLC).
For orientation: Flow cytometry measures light scatter and fluorescence of single cells or particles in a stream.

These results are taken from patent publication US12576155B2, “Senolytic and antiinflammatory prodrugs and methods of use thereof” (priority 2019, dated 2026).

Take `CC(=O)OCC1O[C@@H](Oc2ccc(COC(=O)Nc3ccn([C@@H]4O[C@H](CO)C(O)C4(F)F)c(=O)n3)cc2[N+](=O)[O-])C(OC(C)=O)C(OC(C)=O)[C@H]1OC(C)=O` (stereo partly shown) [SSK1]: in assay [1], the “Effect of GLB1 knockdown on killing of senescent cells by SSK1” value is on record as “impaired the ability of SSK1 to kill SA-β-gal-positive senescent cells”. Further, the “Selective killing of senescent cells (viability)” value in assay [2] is on record as “selectively killed by SSK1”. Moreover, in assay [3], the “Selective elimination of senescent cells (viable cells)” value was “specifically eliminated these senescent cells”. In addition, in the assay on senescent cells, the “Apoptosis (annexin V / PI)” value is on record as “induced apoptosis in senescent cells”.
